Assay results from paper PMC12682947, “Identification of New KCNT1‐Epilepsy Drugs by In Silico, Cell, and Drosophila Modeling” (Annals of Neurology, 2025).
Counter-ions that a name gives are not always drawn. Like-named read-outs stand apart in the source and are kept apart here.

Biological target: T1, WT/Y796H KCNT1 channels (Homo sapiens, UniProt Q5JUK3, Y796H)
T1 construct: T2A self-cleaving motif ([…]) following the first subunit (C); expressed in transfected cells; host or cells: CHO cells
T1 sequence (Q5JUK3 1-1230): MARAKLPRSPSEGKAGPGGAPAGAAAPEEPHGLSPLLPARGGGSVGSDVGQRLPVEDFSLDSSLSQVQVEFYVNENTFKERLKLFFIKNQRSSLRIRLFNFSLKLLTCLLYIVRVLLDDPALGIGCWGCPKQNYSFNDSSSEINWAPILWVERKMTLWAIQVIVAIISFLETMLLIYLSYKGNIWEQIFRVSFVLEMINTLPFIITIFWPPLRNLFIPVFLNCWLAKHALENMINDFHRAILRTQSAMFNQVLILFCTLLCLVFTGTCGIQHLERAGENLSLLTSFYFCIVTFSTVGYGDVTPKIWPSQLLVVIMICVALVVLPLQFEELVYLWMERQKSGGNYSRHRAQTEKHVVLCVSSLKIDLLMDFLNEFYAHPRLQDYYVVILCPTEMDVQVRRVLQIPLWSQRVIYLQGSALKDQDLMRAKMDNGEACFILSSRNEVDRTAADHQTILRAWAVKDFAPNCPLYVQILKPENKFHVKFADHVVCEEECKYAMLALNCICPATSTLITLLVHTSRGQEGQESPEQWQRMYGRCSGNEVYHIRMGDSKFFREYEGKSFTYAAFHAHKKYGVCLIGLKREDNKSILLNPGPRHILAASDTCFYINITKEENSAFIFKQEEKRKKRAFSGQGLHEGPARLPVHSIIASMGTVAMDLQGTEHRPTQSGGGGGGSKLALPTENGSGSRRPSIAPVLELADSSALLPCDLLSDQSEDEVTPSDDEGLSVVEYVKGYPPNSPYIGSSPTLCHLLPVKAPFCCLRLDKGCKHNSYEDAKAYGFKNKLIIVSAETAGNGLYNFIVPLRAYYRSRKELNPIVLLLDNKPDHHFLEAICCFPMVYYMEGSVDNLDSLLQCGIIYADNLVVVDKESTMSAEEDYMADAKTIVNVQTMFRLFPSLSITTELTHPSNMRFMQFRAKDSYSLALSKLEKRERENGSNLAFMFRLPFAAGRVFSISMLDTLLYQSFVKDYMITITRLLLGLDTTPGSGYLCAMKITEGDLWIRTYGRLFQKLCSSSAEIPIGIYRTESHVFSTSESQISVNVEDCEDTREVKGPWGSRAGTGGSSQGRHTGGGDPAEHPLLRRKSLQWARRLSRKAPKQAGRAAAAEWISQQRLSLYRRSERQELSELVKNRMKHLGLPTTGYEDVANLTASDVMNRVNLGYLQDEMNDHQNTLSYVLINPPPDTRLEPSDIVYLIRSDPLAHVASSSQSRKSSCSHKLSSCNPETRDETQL
T1 sequence (Q5JUK3 2-1230 Y796H limits assumed): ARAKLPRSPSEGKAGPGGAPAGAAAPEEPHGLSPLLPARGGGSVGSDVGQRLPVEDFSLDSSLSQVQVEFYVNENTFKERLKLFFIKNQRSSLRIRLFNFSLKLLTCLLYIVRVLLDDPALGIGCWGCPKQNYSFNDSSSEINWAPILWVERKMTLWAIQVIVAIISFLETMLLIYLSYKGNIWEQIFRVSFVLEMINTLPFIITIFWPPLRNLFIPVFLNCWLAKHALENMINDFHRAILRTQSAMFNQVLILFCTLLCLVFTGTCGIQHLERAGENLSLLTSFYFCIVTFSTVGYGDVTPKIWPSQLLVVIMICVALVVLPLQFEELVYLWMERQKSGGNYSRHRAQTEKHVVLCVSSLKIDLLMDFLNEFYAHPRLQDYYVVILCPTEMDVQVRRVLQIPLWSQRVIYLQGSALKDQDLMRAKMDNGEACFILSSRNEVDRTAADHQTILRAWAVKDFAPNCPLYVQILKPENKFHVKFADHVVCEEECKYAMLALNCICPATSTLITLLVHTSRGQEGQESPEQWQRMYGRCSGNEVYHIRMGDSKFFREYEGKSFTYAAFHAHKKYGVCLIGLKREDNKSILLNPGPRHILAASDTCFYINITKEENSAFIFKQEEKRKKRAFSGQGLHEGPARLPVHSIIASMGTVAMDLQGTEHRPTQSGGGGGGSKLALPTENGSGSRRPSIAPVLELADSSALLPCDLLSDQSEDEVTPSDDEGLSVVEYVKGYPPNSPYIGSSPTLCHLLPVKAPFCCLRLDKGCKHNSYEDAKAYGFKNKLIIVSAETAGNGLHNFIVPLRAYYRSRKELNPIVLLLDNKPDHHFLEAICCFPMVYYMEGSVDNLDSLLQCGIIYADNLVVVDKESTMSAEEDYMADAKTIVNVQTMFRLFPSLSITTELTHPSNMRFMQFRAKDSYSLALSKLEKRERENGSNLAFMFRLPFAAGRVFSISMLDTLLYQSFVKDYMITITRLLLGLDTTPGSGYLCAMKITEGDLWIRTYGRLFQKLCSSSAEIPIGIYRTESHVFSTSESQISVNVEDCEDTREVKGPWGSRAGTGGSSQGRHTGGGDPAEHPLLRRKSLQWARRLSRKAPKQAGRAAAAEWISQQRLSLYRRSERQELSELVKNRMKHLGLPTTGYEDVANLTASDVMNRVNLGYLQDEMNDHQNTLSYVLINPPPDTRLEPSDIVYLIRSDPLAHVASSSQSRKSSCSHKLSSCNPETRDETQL
Assay: Whole-cell patch clamp of WT/Y796H KCNT1 channels expressed in CHO cells
Assay type: cell-based
Excerpt: To replicate the heterozygous nature of KCNT1‐associated disorders and obtain channels comprising wild‐type (WT) and mutated subunits, a concatemeric approach was taken. To generate human KCNT1 concatemers, plasmids termed donor and recipient were generated from the pcDNA6‐KCNT1 construct used previously[16] and empty pcDNA6 V5/His6 vector (Invitrogen) using standard polymerase chain reaction (PCR) and cloning techniques. The insert of the donor construct comprised the KCNT1 coding sequence that lacked a start codon and preceded by bases encoding a […] linker. […] The recipient construct was generated by deleting the stop codon and introducing a unique XhoI site. Sequences containing disease mutation Y796H were subcloned into these constructs from a plasmid used previously.[16] All sequences generated by PCR were confirmed by Sanger sequencing (Genewiz, Takeley, UK). Finally, the concatemeric construct was generated by subcloning the XhoI/AgeI fragment from the donor plasmid, containing the in‐frame linker and complete subunit sequence into the same sites in the recipient plasmid. Recombination‐deficient competent Escherichia coli (E. coli) cells and 32°C incubation temperature were used to reduce the frequency of deletions between identical sequences in the plasmid, which was confirmed by restriction analysis. For other experiments, constructs with WT, G288S, R398Q, or R928C mutant forms of KCNT1 cDNA, tagged with YFP‐6His in the pCMV‐entry vectors, were described previously.[10]
The CHO cells were cultured in Dulbecco's modified Eagle's Medium (ThermoFisher, UK) supplemented with 10% (v/v) fetal bovine serum, 50 U/ml penicillin and 0.05 mg/ml streptomycin, and incubated at 37°C in 5% CO2 atmosphere. For whole cell recording of WT/Y796H KCNT1, CHO cells were transiently co‐transfected with concatemeric WT/Y796H and EYFP, as described previously.[29] For electrophysiological experiments, cells were plated onto borosilicate glass cover slips and used 2 to 4 days later. Human embryonic kidney 293T cells (HEK293T) were cultured in the same manner, but with medium supplemented with 2 mM L‐glutamine, and 1% (v/v) nonessential amino acids. For excised inside‐out recording of homomeric WT or mutant YFP‐tagged KCNT1, HEK293T cells plated on glass cover slips were transfected using Attractene Transfection Reagent (Qiagen, Germany) according to the manufacturer's instructions and used 2 to 3 days later.
Whole cell recordings from transiently transfected CHO cells were conducted at room temperature and analyzed as described previously.[29] The pipette (intracellular) solution contained, in mM, 100 K‐gluconate, 30 KCl, 10 Na‐gluconate, 29 glucose, 5 EGTA, and 10 HEPES, adjusted to pH 7.3 with KOH and the bath (extracellular) solution contained, in mM, 140 NaCl, 1 CaCl2, 5 KCl, 29 glucose, 10 HEPES, and 1 MgCl2, adjusted to pH 7.4 with NaOH. For current‐voltage and conductance‐voltage analysis of the concatemeric constructs, cells were held at −80 mV and 400 ms pulses were applied to voltages between −100 and 80 mV. Conductance values (G) with each voltage pulse (V) were obtained by dividing the peak steady‐state current by the driving force (command voltage minus the measured reversal potential). Conductance‐voltage data were fit by a Boltzmann function, G = (G max – G min)/(1 + e^(V‐V½)/k)) + G min, where G max and G min are the maximum and minimum conductance values, V ½ the half‐maximal activation voltage, and slope k. The liquid junction potential was calculated and was used to correct voltage values after data collection. Inhibition by drugs, which were obtained from commercial sources, was determined from currents evoked by 500 ms voltage ramps from −100 to 0 mV at 0.2 hertz (Hz) as described previously.[16] Initially, the drugs (10 mM in DMSO) were diluted to 10 μM in a bath solution and applied via gravity perfusion for 2 minutes, followed by at least a 2‐minute wash with drug‐free solution prior to addition of the next drug. […]

[1] = whole-cell patch clamp, CHO cells
[2] = whole-cell patch clamp, CHO cells, concentration-inhibition analysis, read-out: mean ± SEM IC50

CC(C)(C)NC(=O)[C@@H]1CN(Cc2cccnc2)CCN1C[C@@H](O)C[C@@H](Cc1ccccc1)C(=O)N[C@H]1c2ccccc2C[C@H]1O [indinavir]
inhibition of WT/Y796H KCNT1 channels at 10 μM [1]: did not exhibit inhibition

CC(C)c1c(C(=O)Nc2ccccc2)c(-c2ccccc2)c(-c2ccc(F)cc2)n1CC[C@@H](O)C[C@@H](O)CC(=O)O [atorvastatin]
inhibition of WT/Y796H KCNT1 channels at 10 μM [1]: inhibited
IC50 [2]: 7.54 ± 0.99 µM

CC(C)[C@@H](C)/C=C/[C@@H](C)[C@H]1CC[C@H]2/C(=C/C=C3\C[C@@H](O)CC[C@@H]3C)CCC[C@]12C [dihydrotachysterol]
inhibition of WT/Y796H KCNT1 channels at 10 μM [1]: did not exhibit inhibition

Cc1c(O)cccc1C(=O)N[C@@H](CSc1ccccc1)[C@H](O)CN1C[C@H]2CCCC[C@H]2C[C@H]1C(=O)NC(C)(C)C [nelfinavir mesylate]
inhibition of WT/Y796H KCNT1 channels at 10 μM [1]: inhibited
IC50 [2]: 2.86 ± 0.3 µM

O=C(OCCN1CCN(c2cccc(C(F)(F)F)c2)CC1)c1ccccc1Nc1ccnc2cc(C(F)(F)F)ccc12 [antrafenine]
IC50: 1.3 ± 0.2 µM
inhibition of WT/Y796H KCNT1 channels at 10 μM [1]: inhibited

CS(=O)(=O)c1cccc(C[C@H](NC(=O)c2c(Cl)cc3c(c2Cl)CCN(C(=O)c2ccc4ccoc4c2)C3)C(=O)O)c1 [lifitegrast]
inhibition of WT/Y796H KCNT1 channels at 10 μM [1]: did not exhibit inhibition

CC(C)N1CCN(c2ccc(OCC3COC(Cn4cncn4)(c4ccc(Cl)cc4Cl)O3)cc2)CC1 (stereo not shown) [terconazole]
inhibition of WT/Y796H KCNT1 channels at 10 μM [1]: did not exhibit inhibition

CCOc1nc2cccc(C(=O)OC(C)OC(=O)OC3CCCCC3)c2n1Cc1ccc(-c2ccccc2-c2nn[nH]n2)cc1 (stereo not shown) [Candesartan cilexetil, candesartan cilexetil]
potency of concentration-dependent inhibition (in words) [1]: much less potent

CNC(=O)c1cc(Oc2ccc(NC(=O)Nc3ccc(Cl)c(C(F)(F)F)c3)c(F)c2)ccn1 [regorafenib]
inhibition of WT/Y796H KCNT1 channels at 10 μM [1]: inhibited
IC50 [2]: 10.3 ± 1.25 µM
